One assay addresses Insulin receptor (Homo sapiens, UniProt P06213). The assay can be described thus: Inhibition of IRK by DELPHIA.
Another assay has as its system T-cell. The assay can be described thus: Inhibition of anti-CD3/anti-CD28-stimulated IL2 production in human CD4+ T cells.
Assay [1] addresses T1, Tyrosine-protein kinase ITK/TSK (Homo sapiens, UniProt Q08881).
T1 sequence (Q08881 whole entry): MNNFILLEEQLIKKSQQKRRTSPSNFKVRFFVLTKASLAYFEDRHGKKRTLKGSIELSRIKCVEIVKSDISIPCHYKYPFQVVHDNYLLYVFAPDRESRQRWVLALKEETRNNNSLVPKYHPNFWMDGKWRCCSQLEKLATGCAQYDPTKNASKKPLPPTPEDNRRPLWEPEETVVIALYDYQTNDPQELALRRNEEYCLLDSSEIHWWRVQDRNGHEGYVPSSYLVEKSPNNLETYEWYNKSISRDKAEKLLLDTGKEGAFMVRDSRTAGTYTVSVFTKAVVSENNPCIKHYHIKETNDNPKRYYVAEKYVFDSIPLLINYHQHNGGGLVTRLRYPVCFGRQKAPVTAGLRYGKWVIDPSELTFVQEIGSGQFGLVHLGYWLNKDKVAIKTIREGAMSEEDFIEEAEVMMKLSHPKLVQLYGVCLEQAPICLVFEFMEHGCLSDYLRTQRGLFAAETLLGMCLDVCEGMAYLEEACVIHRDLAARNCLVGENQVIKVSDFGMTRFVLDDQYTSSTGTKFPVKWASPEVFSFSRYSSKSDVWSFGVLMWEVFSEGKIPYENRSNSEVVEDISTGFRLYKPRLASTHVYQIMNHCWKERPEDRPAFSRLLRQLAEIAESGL
The assay can be described thus: Antagonist activity at ITK expressed in chicken DT40 B cells assessed as inhibition of calcium flux. Type of assay: functional, cell-based. In general terms: Calcium flux is commonly read through the fluorescence of an indicator in the cells.

Assay [2] has as its target T1, Tyrosine-protein kinase ITK/TSK. The assay can be described thus: Inhibition of ITK by DELPHIA.
In assay [3] the target is Tyrosine-protein kinase BTK (Homo sapiens, UniProt Q06187). The assay can be described thus: Inhibition of BTK.
Tyrosine-protein kinase BTK, sequence (Q06187 whole entry): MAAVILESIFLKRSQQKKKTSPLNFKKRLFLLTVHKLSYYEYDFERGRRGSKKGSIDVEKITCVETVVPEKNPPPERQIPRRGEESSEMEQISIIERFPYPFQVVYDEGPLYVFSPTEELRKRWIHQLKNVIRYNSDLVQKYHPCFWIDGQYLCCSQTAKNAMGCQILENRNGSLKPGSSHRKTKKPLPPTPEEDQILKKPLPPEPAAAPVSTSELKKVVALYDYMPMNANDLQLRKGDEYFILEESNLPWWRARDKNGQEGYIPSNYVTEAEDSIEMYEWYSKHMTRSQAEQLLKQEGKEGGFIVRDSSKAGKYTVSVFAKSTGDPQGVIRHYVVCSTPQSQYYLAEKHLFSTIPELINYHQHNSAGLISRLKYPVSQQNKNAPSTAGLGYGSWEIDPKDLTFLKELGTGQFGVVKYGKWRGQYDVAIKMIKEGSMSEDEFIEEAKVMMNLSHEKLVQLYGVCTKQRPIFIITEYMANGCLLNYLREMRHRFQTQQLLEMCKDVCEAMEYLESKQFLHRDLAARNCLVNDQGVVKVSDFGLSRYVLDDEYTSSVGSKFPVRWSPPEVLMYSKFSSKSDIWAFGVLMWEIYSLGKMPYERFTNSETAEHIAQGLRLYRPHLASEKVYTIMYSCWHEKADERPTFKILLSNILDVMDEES
In assay [4] the target is T2, Tyrosine-protein kinase TXK (Homo sapiens, UniProt P42681).
T2 sequence (P42681 whole entry): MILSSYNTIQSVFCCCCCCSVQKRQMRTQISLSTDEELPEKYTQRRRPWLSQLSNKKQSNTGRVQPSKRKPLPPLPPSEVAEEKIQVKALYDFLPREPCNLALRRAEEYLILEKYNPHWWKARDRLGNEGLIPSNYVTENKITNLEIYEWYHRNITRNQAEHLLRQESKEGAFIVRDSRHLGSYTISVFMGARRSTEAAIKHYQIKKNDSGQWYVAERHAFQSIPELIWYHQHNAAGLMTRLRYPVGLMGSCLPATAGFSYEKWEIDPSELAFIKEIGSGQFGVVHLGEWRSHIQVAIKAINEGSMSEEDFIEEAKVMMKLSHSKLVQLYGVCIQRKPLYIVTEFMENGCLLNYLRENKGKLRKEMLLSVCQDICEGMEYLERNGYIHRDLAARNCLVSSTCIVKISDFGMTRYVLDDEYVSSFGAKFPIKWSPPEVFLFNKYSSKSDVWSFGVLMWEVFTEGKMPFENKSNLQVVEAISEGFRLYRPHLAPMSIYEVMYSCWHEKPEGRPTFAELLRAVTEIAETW
The assay can be described thus: Inhibition of TXK.

The values below come from ChEMBL document CHEMBL1152261, “2-Aminobenzimidazoles as potent ITK antagonists: trans-stilbene-like moieties targeting the kinase specificity pocket” (Bioorg Med Chem Lett, 2008).

pIC50: −log10 of the molar value.

Broadly, the pIC50 is the IC50 on a negative log10 scale, so that one unit is a factor of ten.

Insulin receptor, sequence (P06213 28-758 limits assumed): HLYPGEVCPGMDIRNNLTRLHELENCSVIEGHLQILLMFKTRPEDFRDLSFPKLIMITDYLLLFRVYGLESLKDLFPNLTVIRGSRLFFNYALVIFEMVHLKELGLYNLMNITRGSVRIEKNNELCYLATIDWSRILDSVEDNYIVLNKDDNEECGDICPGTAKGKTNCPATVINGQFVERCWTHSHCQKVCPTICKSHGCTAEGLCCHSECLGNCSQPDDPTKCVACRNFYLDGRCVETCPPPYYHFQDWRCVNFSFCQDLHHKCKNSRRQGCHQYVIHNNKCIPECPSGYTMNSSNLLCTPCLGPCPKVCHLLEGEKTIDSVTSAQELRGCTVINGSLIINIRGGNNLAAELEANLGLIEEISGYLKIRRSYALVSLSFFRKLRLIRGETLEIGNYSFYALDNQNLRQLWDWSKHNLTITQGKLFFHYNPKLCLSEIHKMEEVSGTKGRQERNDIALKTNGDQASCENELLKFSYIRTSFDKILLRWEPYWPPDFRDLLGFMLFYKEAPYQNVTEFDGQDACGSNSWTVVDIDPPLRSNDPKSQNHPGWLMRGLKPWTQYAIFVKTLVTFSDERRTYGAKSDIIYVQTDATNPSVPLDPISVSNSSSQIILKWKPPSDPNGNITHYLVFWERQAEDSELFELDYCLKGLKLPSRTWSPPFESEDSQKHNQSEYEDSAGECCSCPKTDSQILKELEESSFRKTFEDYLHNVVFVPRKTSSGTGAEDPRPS
Insulin receptor, sequence (P06213 763-1382 limits assumed): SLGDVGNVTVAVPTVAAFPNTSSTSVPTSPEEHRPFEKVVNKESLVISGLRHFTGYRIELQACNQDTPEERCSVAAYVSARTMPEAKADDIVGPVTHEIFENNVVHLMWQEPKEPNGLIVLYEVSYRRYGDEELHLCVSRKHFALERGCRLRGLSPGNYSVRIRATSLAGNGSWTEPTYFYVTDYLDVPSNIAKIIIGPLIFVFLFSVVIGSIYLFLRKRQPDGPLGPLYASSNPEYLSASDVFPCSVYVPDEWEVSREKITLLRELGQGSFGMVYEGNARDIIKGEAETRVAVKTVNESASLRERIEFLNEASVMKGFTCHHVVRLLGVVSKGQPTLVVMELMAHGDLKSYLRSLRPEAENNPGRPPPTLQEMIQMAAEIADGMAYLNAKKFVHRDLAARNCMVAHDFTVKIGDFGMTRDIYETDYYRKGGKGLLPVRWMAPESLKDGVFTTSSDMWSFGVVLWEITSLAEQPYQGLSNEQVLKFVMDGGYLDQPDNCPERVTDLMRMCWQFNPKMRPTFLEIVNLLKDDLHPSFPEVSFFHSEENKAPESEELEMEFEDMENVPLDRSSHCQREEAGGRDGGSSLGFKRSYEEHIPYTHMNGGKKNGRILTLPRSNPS

For `CN(C(=O)c1ccccc1)c1ccc2c(c1)[nH]/c(=N\C(=O)c1ccc(/C=C/c3ccc(O)cc3)s1)n2CCC(N)=O`, on Insulin receptor, the pIC50 was 5.66.
Same read-out and setting: the result for `CN(C(=O)c1ccccc1)c1ccc2c(c1)nc(NC(=O)c1ccc(/C=C/c3cccc(C(F)(F)F)c3)s1)n2CCC(N)=O` reads under 5.30.
`COc1ccc(/C=C/c2ccc(C(=O)/N=c3\[nH]c4cc(N(C)C(=O)c5ccccc5)ccc4n3CCC(N)=O)s2)cc1` showed a pIC50 against Insulin receptor of under 5.30.
Take `CN(C(=O)c1ccccc1)c1ccc2c(c1)[nH]/c(=N\C(=O)c1ccc(/C=C/c3ccccc3C(F)(F)F)s1)n2CCC(N)=O`: the pIC50 against Insulin receptor is under 5.30.
`COc1cccc(/C=C/c2ccc(C(=O)Nc3nc4cc(N(C)C(=O)c5ccccc5)ccc4n3CCC(N)=O)s2)c1` gave a negative-log IC50 (pIC50) at Insulin receptor of under 5.30.
Take `CN(C(=O)c1ccccc1)c1ccc2c(c1)nc(NC(=O)c1cccs1)n2CCC(N)=O`: in the assay with T-cell, the pIC50 was under 5.30.
Molecule `CN(C(=O)c1ccccc1)c1ccc2c(c1)[nH]/c(=N\C(=O)c1ccc(/C=C/c3cccnc3)s1)n2CCC(N)=O` had a pIC50 against Insulin receptor of under 5.30.
The molecule `CN(C(=O)c1ccccc1)c1ccc2c(c1)[nH]/c(=N\C(=O)c1ccc(/C=C/c3cn[nH]c3)s1)n2CCC(N)=O` showed a pIC50 in the assay with T-cell of 5.52.
`C=C(C)c1ccc(C(=O)/N=c2\[nH]c3cc(N(C)C(=O)c4ccccc4)ccc3n2CCC(N)=O)s1` had a pIC50 against Insulin receptor of under 5.30.
For the molecule `COC(=O)/C=C(\C)c1ccc(C(=O)/N=c2\[nH]c3cc(N(C)C(=O)c4ccccc4)ccc3n2CCC(N)=O)s1`, at Insulin receptor, the pIC50 was 5.44.
Regarding `CN(C(=O)c1ccccc1)c1ccc2c(c1)[nH]/c(=N\C(=O)c1ccc(/C=C/n3ccnc3)s1)n2CCC(N)=O`, the pIC50 was 5.66 in assay [1], 7.92 in assay [2] and under 5.30 against Insulin receptor.
`C=Cc1ccc(C(=O)Nc2nc3cc(N(C)C(=O)c4ccccc4)ccc3n2CCC(N)=O)s1` had a negative logarithm of the IC50 (pIC50) against Insulin receptor of 6.32.
Regarding `COC(=O)/C=C/c1ccc(C(=O)/N=c2\[nH]c3cc(N(C)C(=O)c4ccccc4)ccc3n2CCC(N)=O)s1`, the pIC50 against Insulin receptor is under 5.30.
For `CN(C(=O)c1ccccc1)c1ccc2c(c1)[nH]/c(=N\C(=O)c1ccc(/C=C/c3ccncc3)s1)n2CCC(N)=O`, the pIC50 at Insulin receptor is under 5.30.
Regarding `CN(C(=O)c1ccccc1)c1ccc2c(c1)[nH]/c(=N\C(=O)c1ccc(/C=C/c3cnccn3)s1)n2CCC(N)=O`, the values for the pIC50 (in assay [1]; in assay [2]; against Insulin receptor) were 6.09, 8.10 and under 5.30, respectively.
On to `CN(C(=O)c1ccccc1)c1ccc2c(c1)[nH]/c(=N\C(=O)c1ccc(/C=C/c3cccc(N)c3)s1)n2CCC(N)=O`, for which the pIC50 at Insulin receptor was 5.31.
Same read-out and setting: as for `CN(C(=O)c1ccccc1)c1ccc2c(c1)nc(NC(=O)c1ccc(/C=C/c3ccc(N)cc3)s1)n2CCC(N)=O`, the figure is 5.48.
Turning to `CN(C(=O)c1ccccc1)c1ccc2c(c1)[nH]/c(=N\C(=O)c1ccc(/C=C/c3ncc(N)cn3)s1)n2CCC(N)=O`, the pIC50 in assay [1] is 6.39; in assay [2], 8.30; with T-cell, 5.80; in assay [3], 8.30; at Insulin receptor, 5.82; in assay [4], 6.15.
Take `CN(C(=O)c1ccccc1)c1ccc2c(c1)[nH]/c(=N\C(=O)c1ccc(/C=C/c3cccc([N+](=O)[O-])c3)s1)n2CCC(N)=O`: the pIC50 against Insulin receptor is 5.37.
`COc1ccccc1/C=C/c1ccc(C(=O)/N=c2\[nH]c3cc(N(C)C(=O)c4ccccc4)ccc3n2CCC(N)=O)s1` showed a pIC50 against Insulin receptor of under 5.30.
For the molecule `CN(C(=O)c1ccccc1)c1ccc2c(c1)[nH]/c(=N\C(=O)c1ccc(/C=C/c3cccc(N)n3)s1)n2CCC(N)=O`, the pIC50 in assay [1] was 5.70; in assay [2], 8.15; at Insulin receptor, 5.42.
For the molecule `C/C(=C\c1ccncc1)c1ccc(C(=O)/N=c2\[nH]c3cc(N(C)C(=O)c4ccccc4)ccc3n2CCC(N)=O)s1`, on Insulin receptor, the pIC50 was under 5.30.
Regarding `C/C(=C\c1cccnc1)c1ccc(C(=O)/N=c2\[nH]c3cc(N(C)C(=O)c4ccccc4)ccc3n2CCC(N)=O)s1`, the pIC50 on Insulin receptor is under 5.30.
In turn, `CN(C(=O)c1ccccc1)c1ccc2c(c1)[nH]/c(=N\C(=O)c1ccc(/C=C/c3ccccc3N)s1)n2CCC(N)=O` had a pIC50 at Insulin receptor of 5.71.
`C/C(=C\c1ccccc1)c1ccc(C(=O)Nc2nc3cc(N(C)C(=O)c4ccccc4)ccc3n2CCC(N)=O)s1` gave a pIC50 against Insulin receptor of under 5.30.
At Insulin receptor, `CN(C(=O)c1ccccc1)c1ccc2c(c1)[nH]/c(=N\C(=O)c1ccc(/C=C/c3ccc(C(F)(F)F)cc3)s1)n2CCC(N)=O` gave a pIC50 of under 5.30.
The same measure, in the same setting: the result for `CN(C(=O)c1ccccc1)c1ccc2c(c1)[nH]/c(=N\C(=O)c1ccc(/C=C/c3ccccc3)s1)n2CCC(N)=O` reads 6.01.
As to `C/C(=C\C#N)c1ccc(C(=O)/N=c2\[nH]c3cc(N(C)C(=O)c4ccccc4)ccc3n2CCC(N)=O)s1`, the pIC50 on Insulin receptor was 5.35.
